Common to all, as to assay type: cell-based
The subject of one assay is A549 cell line. As to the kind of experiment: ATP level measurement according to gossypol concentration. To be noted: 0, 0.1 or 1 μM gossypol for 1 hour; FIG. 2. How it is done:
Also, to investigate a change of ATP levels according to the concentration of gossypol, an A549 cell line was treated with 0, 0.1 or 1 μM gossypol for 1 hour, followed by measuring ATP levels.

The subject of assay [1] is non-small cell lung cancer (NSCLC) cell lines (A549, H460, Hop-92, H23). The experiment in a line: ATP level measurement with ATP assay kit after gossypol treatment. The settings on record: 1 μM gossypol for 1 hour; FIG. 1. The method, then: To examine whether energy generation in cancer cells was inhibited by gossypol, which is […], non-small cell lung cancer (NSCLC) cell lines, for example, an A549 cell line, an H460 cell line, an Hop-92 cell line and an H23 cell line, were treated with 1 μM gossypol for 1 hour, followed by measuring ATP levels using an ATP assay kit (Biovision; #K354-100). As a control, normal lung epithelial cells were used.

In assay [2] the test system is lung cancer cell lines (A549/ATCC, HOP-62, HOP-92, NCI-H23, NCI-H460, NCI-H522). The experiment in a line: SRB analysis of growth inhibition of lung cancer cell lines. The settings on record: 48 hours incubation, single treatment, FIG. 3, read-out: GI50 concentration (50% growth inhibition). How it is done:
(§1) An SRB analysis was performed to examine the effect of gossypol on inhibiting the growth of cancer cell lines. Specifically, according to the doubling time of lung cancer cell lines, for example, A549/ATCC, HOP-62, HOP-92, NCI-H23, NCI-H460 or NCI-H522 cell lines, 5000 to 40000 cells were seeded per well and grown in a 96-well microtiter plate. After 24 hours, the cells were treated with […] of 0, 0.1, 1, 10 or 100 μM gossypol per well, and incubated at 37° C. for 48 hours. Subsequently, […] of 50% cold (4° C.) trichloroacetic acid (TCA) was added to each of the attached cell lines, and […] of 80% TCA was added to each of the suspended cell lines to fix the cells. Following the incubation of the plate at 4° C. for 1 to 3 hours, the TCA solution in the plate was discarded, and then the plate was rinsed with distilled water five times. The plate was dried at room temperature for approximately 12 to 24 hours, and then fixed cells were stained with […] of sulforhodamine B (SRB) at room temperature for 5 minutes. After staining, the plate was washed with 1% glacial acetic acid three times, and dried at room temperature for approximately 12 to 24 hours. The SRB dye was dissolved with 10 mM Trizma base, and an optical density was measured at 515 nm. The effect of gossypol on inhibiting cancer cells was represented as 50% growth inhibition (GI50).

In assay [3] the test system is cancer cell lines A549/ATCC and NCI-H460. The experiment in a line: SRB analysis of single and combination treatment. To be noted: 0.1-50 μM gossypol alone; FIGS. 5 and 6. How it is done: as §1, with “(GI50). […]” for “(GI50).”
For assay [4], the system named is AMP-activated protein kinase (AMPK) phosphorylation in A549 lung cancer cell lines. The experiment in a line: AMPK phosphorylation by western blotting. The settings on record: 1 μM for 0, 8, 16 or 24 hours; 0, 0.1, 0.5 or 1 μM for 24 hours; FIG. 4. The method, then: To examine the anticancer effect according to the treatment time or concentration of gossypol, A549 lung cancer cell lines were treated with 1 μM gossypol for 0, 8, 16 or 24 hours, and then the phosphorylation of an AMP-activated protein kinase (AMPK), which is a critical protein for cancer cell division, was analyzed by western blotting.
Also, after the individual treatment of 0, 0.1, 0.5 or 1 μM gossypol for 24 hours, AMPK phosphorylation was also analyzed by western blotting.
(In general: Immunoblotting shows a protein as a band on a membrane.)

SMILES strings stand for the structures.

Consider `Cc1cc2c(C(C)C)c(O)c(O)c(C=O)c2c(O)c1-c1c(C)cc2c(C(C)C)c(O)c(O)c(C=O)c2c1O` [gossypol], for which, in the assay on A549 cell line, the “inhibition of the ATP production, concentration dependence” value was “dependent on the concentration of gossypol”. The “levels of ATP production” value in assay [1] is “inhibited”. For the same compound, the GI50 in assay [2] stood at 5 µM. In addition, the “growth of the cancer cells, single treatment” value in assay [3] is given as “hardly inhibited”. Further, in assay [4], the AMPK phosphorylation entry was “increased depending on the treatment time and concentration”.
